A short description of series [1]: Solubility (statement).
In series [2] the test system is other 5-HT1 receptor subtypes (5-HT1A, 5-HT1B, 5-HT1D, 5-HT1E). To be noted: cited from earlier work.
Series [3] can be described thus: Oral pharmacokinetics (solution and tablet), Study 1 and Study 2. The class given is in vivo, human. The method, then: Plasma samples were analyzed for Compound I using a validated liquid chromatography with tandem mass spectrometric detection (LC/MS/MS) method. Relative bioavailability of tablet and solution formulations for AUCt, AUC∞, and Cmax were assessed. A linear mixed effects model was fitted to the log-transformed PK parameters (AUCt, AUC∞, and Cmax). Included in the model were treatment, period, and sequence as fixed factors and subjects nested within sequences as a random factor. For the relative bioavailability analysis, the tablet formulation was the test and the solution formulation was the reference. 90% confidence intervals and ratios for the relative mean in-transformed AUCt, AUC∞, and Cmax of the test to reference formulation were calculated.

For series [4], the system named is rabbit saphenous vein. To be noted: concentrations up to 0.1 mM; cited from earlier work.

“Also recorded” adds a separate entry of the source. Where only a bound is given, the exact number is not on record here.

Regarding `CN1CCC(C(=O)c2cccc(NC(=O)c3c(F)cc(F)cc3F)n2)CC1` [Compound I, 2,4,6-trifluoro-N-[6-(1-methyl-piperidin-4-ylcarbonyl)-pyridin-2-yl]-benzamide], the solubility entry in series [1] is given as “high solubility”. In series [2], the “affinity higher for 5-HT1F receptors than for other 5-HT1 receptor subtypes” value is reported as “more than 450 fold”. Also, the Tmax – broadly, the time from dosing to the highest level – in series [3] (both sexes, human, plasma, 50 to 400 mg tablet formulation, oral, read-out: Median tmax) fell in the range of 1.5 to 2.5 h. Further, in series [3] (human, in vivo, po), the oral bioavailability result is listed as “orally bioavailable”. Besides, the bioavailability – broadly, dose-corrected exposure relative to a reference, in per cent – in series [3] (male, human, plasma, 200 mg oral dose, read-out: relative bioavailability of the tablet to the solution) is 100%. In series [3] (oral 25 to 400 mg, males and females), the “dose linearity / proportionality of oral pharmacokinetics” value is given as “dose linearity; also recorded: dose proportionality”. The “oral dose achieving plasma levels previously associated with efficacy by the i.v. route” value in series [3] (solution and tablet) is listed as at least 50 mg. Moreover, the “constriction of rabbit saphenous vein” value in series [4] is given as “did not constrict”.
